Tests used:
[1] = tested on: freeze-dried J-TEC Human Reconstituted Epidermis model (stratum corneum sheet); experiment: Transparency and transmittance of freeze-dried stratum corneum sheet after wetting and drying (FIG. 7); settings: wetted 30 minutes, dried 18 hours at 34° C., 60% humidity
Experimental: The freeze-dried stratum corneum sheet was wetted for 30 minutes in a 10% glycerin aqueous solution, in an aqueous solution of liquid paraffin (10%), glycerin (10%), POE(60) hydrogenated castor oil (10%), carboxyvinyl polymer (product name: CARBOPOL 981 by Lubrizol Advanced Materials, Inc.) (0.2%) and KOH (0.1%) (liquid paraffin+glycerin+thickener aqueous solution), and in 100% ethanol, and after removing the liquid, drying was performed for 18 hours in an atmosphere at 34° C., 60% humidity, and the sheet was photographed (FIG. 7). […] Since higher transparency of the stratum corneum can be considered a more excellent skin condition, the state of improvement in skin can be evaluated based on the thickness change in the stratum corneum cells or cell layer from moistening in a liquid until drying.

[2] = tested on: J-TEC Human Reconstituted Epidermis Model (stratum corneum sheet); experiment: Visual examination of stratum corneum sheet transparency after wetting and drying (Example 6); settings: visually examined after wetting 30 minutes and drying 18 hours at 34° C., 60% humidity
Experimental: (§1) The thickness of a J-TEC Human Reconstituted Epidermis Model (stratum corneum sheet) before the experiment was measured with a caliper (Caliper No. 227-201 by Mitsutoyo Corp.) (one location each) (A). The stratum corneum sheet was further wetted for 30 minutes in a 10% glycerin aqueous solution, an aqueous solution of liquid paraffin (10%), glycerin (10%), POE(60) hydrogenated castor oil (10%), carboxyvinyl polymer (product name: CARBOPOL 981, Lubrizol Advanced Materials, Inc.) (0.2%) and KOH (0.1%) (liquid paraffin+glycerin+thickener aqueous solution), and in 100% ethanol, and immediately upon completion of wetting, the thickness of the stratum corneum sheet was measured with a caliper in the same manner (B).
(§2) It was further dried for 18 hours under conditions of 34° C., 60% humidity and the stratum corneum sheet was measured (C). Using theses results, the thickness change rate (%) of the stratum corneum sheet was measured based on the following formula 1: Thickness change rate (%)=(B−A)×100/A−(C−B)×100/C

[3] = tested on: J-TEC Human Reconstituted Epidermis Model (stratum corneum sheet); experiment: Change in stratum corneum sheet thickness on wetting and drying (Example 6)
Experimental: as §1, §2

## CCO [100% Ethanol, ethanol]
[1]
  transparency of freeze-dried stratum corneum sheet moistened and then dried (FIG. 7): low
[1]; HR100 spectrophotometer
  stratum corneum transmittance of freeze-dried sheet moistened and then dried (FIG. 7): low
[2]
  Transparency: Poor
[3]; (B−A)×100/A−(C−B)×100/C, wetted 30 minutes, dried 18 hours at 34° C., 60% humidity, caliper
  Thickness change rate (%): 3.9%
[3]; after wetting with the liquid
  change in thickness of stratum corneum sheet when moistened (FIG. 6): no change in thickness

Source: patent US9714936B2, “Method for evaluating cosmetic” (SHISEIDO COMPANY, LTD., priority 2011, dated 2017)
